Laboratory results as given in patent US20220265549A1, “PHARMACEUTICAL COMPOSITION COMPRISING ENSIFENTRINE” (VERONA PHARMA PLC, priority 2019, published 2022).

Legend:
[1] = Particle size distribution of materials (laser diffraction); type: physicochemical; details: volume particle size distribution
Text: Particle sizes are described herein by reference to the Dv50 value, which is the median particle size for a volume distribution. Thus, half the volume of the particles have diameters of less than the Dv50 value and half the volume of the particles have diameters of greater than the Dv50 value. This is a well-known manner in which to describe particle size distributions. The parameters of Dv10 and Dv90 may also be used to characterise a particle size distribution of a sample. 10% of the volume of particles have a diameter of less than the Dv10 value. 90% of the volume of the particles have a diameter of less than the Dv90 value.
The technique used to measure the Dv50 (and Dv10 and Dv90) values as stated herein is typically laser diffraction. For instance, the coarse lactose particles typically have a particle size distribution with a Dv50 value of from 40 μm to 80 μm as measured by laser diffraction and the fine lactose particles have a particle size distribution with a Dv50 value of from 5 μm to 10 μm as measured by laser diffraction.
The particle size distribution of low aqueous solubility materials, for instance the ensifentrine particles, may be as measured by laser diffraction using a wet powder dispersion system. For instance, the particle size distribution can be measured by laser diffraction using a Malvern Spraytec in conjunction with a wet dispersion cell. Typically, the instrument parameters for the Malvern Spraytec are as follows: • particle—standard opaque particle; • refractive index Particle—1.50; • refractive index (imaginary)—0.50; • density of particle—1.00; • refractive index of dispersant—1.33; • controller unit—1000 RPM; • measurement type—timed; • initial sampling time—30 s; • obscuration—20%-30%; • dispersant—1% Polysorbate 20 in deionised water.
The particle size distribution of materials soluble in water, for instance lactose particles, may be as measured by laser diffraction using a dry powder dispersion system. For instance, the particle size distribution can be measured by laser diffraction using a Malvern or Sympatec dry dispersion cell. […]

[2] = tested on: patients with COPD; assay: Phase II clinical study, single dose part (FEV1); type: in vivo, human
Protocol: (§1) A 2-part, 37 patient, Phase II single and repeat dose clinical study with ensifentrine in patients with COPD was completed using DPI formulations 12, 13 and 14 (Table 6).
Ensifentrine doses of 0.15, 0.5, 1.5, and 3 mg provided dose-dependent improvements from baseline in peak Forced Expiratory Volume in one second (FEV1) (over 4 hours) of up to 333 mL compared with placebo (p<0.01 for 1.5 mg and 3 mg doses).

[3] = tested on: patients with COPD; assay: Phase II clinical study, repeat dose crossover part (FEV1); type: in vivo, human; details: for Improvement from baseline in peak FEV1 (over 4 hours) on Day 7 compared with placebo: DPI; for Improvement in morning trough FEV1 on Day 7 compared with placebo: twice daily over 7 days, dose not identified
Protocol: as §1
The second part of the study was a complete block crossover study using the same patients that were dosed in the first part of the study. Ensifentrine doses of 0.15 mg to 3 mg dosed twice daily over 7 days also provided dose-dependent, highly statistically significant and clinically meaningful improvements from baseline in peak FEV1 (over 4 hours) on Day 7 of 102, 175, 180, and 260 mL, respectively, compared with placebo (p≤0.0001 for all dose groups). The improvement in FEV1 was sustained over the 12 hour dosing interval as shown by clinically meaningful and statistically significant improvements in average FEV1 over 12 hours of up to 147 mL (p<0.05 for all dose groups) and in morning trough FEV1 on Day 7 of 98, 87, and 97 mL, respectively, compared with placebo (p≤0.001 for each dose).

## COc1cc2c(cc1OC)-c1c/c(=N\c3c(C)cc(C)cc3C)n(CCNC(N)=O)c(=O)n1CC2 [Ensifentrine, 9,10-dimethoxy-2-(2,4,6-trimethylphenylimino)-3-(N-carbamoyl-2-aminoethyl)-3,4,6,7-tetrahydro-2H-pyrimido[6,1-a]isoquinolin-4-one]
[1]
  Dv10 (μm): 0.5 μm
  Dv50 (μm): 1.3 μm
  Dv90 (μm): 3.6 μm
[2]; single doses of 0.15, 0.5, 1.5 and 3 mg by DPI, maximum across doses
  Improvement from baseline in peak FEV1 (over 4 hours) compared with placebo: up to 333 mL
[2]; single doses up to 3 mg by DPI, over 12 hours, COPD patients
  Bronchodilatory effect: rapid, dose-dependent, and statistically significant bronchodilatory effect
[3]; 0.15 mg to 3 mg twice daily over 7 days, maximum across doses
  Improvement in average FEV1 over 12 hours: up to 147 mL
[3]; 0.15 mg twice daily over 7 days
  Improvement from baseline in peak FEV1 (over 4 hours) on Day 7 compared with placebo: 102 mL
[3]; 0.5 mg twice daily over 7 days
  Improvement from baseline in peak FEV1 (over 4 hours) on Day 7 compared with placebo: 175 mL
[3]; 1.5 mg twice daily over 7 days
  Improvement from baseline in peak FEV1 (over 4 hours) on Day 7 compared with placebo: 180 mL
[3]; 3 mg twice daily over 7 days
  Improvement from baseline in peak FEV1 (over 4 hours) on Day 7 compared with placebo: 260 mL
[3]; first of three listed values
  Improvement in morning trough FEV1 on Day 7 compared with placebo: 98 mL
[3]; second of three listed values
  Improvement in morning trough FEV1 on Day 7 compared with placebo: 87 mL
[3]; third of three listed values
  Improvement in morning trough FEV1 on Day 7 compared with placebo: 97 mL
